Assay results taken from patent publication US20120207861A1, “BIOCIDAL COMPOSITION AND METHOD FOR TREATING RECIRCULATING WATER SYSTEMS” (priority 2006, published 2012).

Legend:
[1] = system: biofilm of fungal isolates (Paecilomyces lilacinus, Trichoderma spp.) and bacterial isolates (Alcaligenes species, Sphingomonas species); test: Remediation: 96-well plate mixed biofilm treated with biocides, resazurin readout; assay type: cell-based; conditions: for Efficacy level (Effective Concentration with 6 ppm of PHMB): with 6 ppm PHMB, biofilm treated 24 hours at 28° C., resazurin; for Result (effect of adjuvant on DBNPA efficacy against biofilm): adjuvant 50 ppm with DBNPA in presence of PHMB
Procedure: Fungal isolates of common fungi found in swimming pools such as Paecilomyces lilacinus and Trichoderma spp. and bacterial isolates also common to swimming pools such as, i.e. Alcaligenes species and Sphingomonas species were used to construct a biofilm, which was treated with biocides, using the following method: […] An aliquot of the spore suspension was added to each well of a 96-well plate, except column 12. The plates were incubated for 18 hours at 28° C. Also, a mixture of bacterial suspension was prepared at a concentration of 2.34×10^5/ml in 20% […] broth. An aliquot of bacterial suspension was added to each well of the 96-well plate, where fungal spores were placed. The plates were incubated for 24 hours at 28° C. […] An aliquot of the chemical solution was added to each well of column 1 and 2. The solution was mixed in each well of column 2 and an aliquot of solution was transferred from each well of column 2 to each well of column 3. The dilution was repeated to column 11 and the solution from each well of column 11 after dilution was discarded. The culture broth was removed from each well of the incubated plate. An aliquot of 0.8% sodium chloride solution was added to each well, except column 12. The sodium chloride solution was then removed from each well. The prepared chemical solutions were transferred to the corresponding wells of the biofilm plate. The plate was incubated for 24 hours at 28° C. The chemical solution was removed from the plate and an aliquot of resazurin solution was added to each well including column 12. The plate was kept on the lab bench for 24-48 hours. The plate was read at 540 nm and 620 nm. The difference in absorbance between the two wavelengths indicated the performance of the biocides.

[2] = system: fungi Paecilomyces and Trichoderma; test: Prevention secondary screen: fungal plate counts; assay type: cell-based; conditions: Table 4
[3] = system: Mold (fungi Paecilomyces and Trichoderma); test: Prevention in test pools: water mold counts
Procedure: (§1) The test pools were run in the preventative mode to evaluate the effect of the sanitizers on the build up of bacteria and fungi in the system. The pool pumps were operated for a minimum of 8 hours per day. Each pool was challenged twice per week with eight species of bacteria and four species of fungi typically found in swimming pool water. These microorganisms include species of the fungi Paecilomyces and Trichoderma, and species of the bacteria Alcaligenes, Chryseobacterium and Sphingomonas. Each inoculation represents a total addition of 0.8×106 microorganisms per test pool. Synthetic bather load is added to the system on a weekly basis, as a nutrient source for the microorganisms present in the system. The bather load consists of carbon, nitrogen and macro/micro nutrient sources such as urea, albumin, creatinine, lactic acid, uric acid, glucuronic acid, sodium chloride, sodium sulfate, ammonium chloride, sodium bicarbonate, potassium phosphate potassium sulfate. The total number of viable bacteria and fungi present in each test pool was determined weekly, by conducting agar plate counts. Water samples are removed from each test pool, and using this sample a dilution series (in 10-1 steps, down to a 10-5 of the original sample) is prepared. Subsequently, an aliquot of each dilution is spread onto dry Cystine Lactose Electrolyte Deficient agar plates (for enumeration of bacteria) and dry Sabaroud-Dextrose agar plates (for enumeration of fungi). […] There were no chemical doses administered on Saturday or Sunday.

[4] = system: eight species of bacteria and four species of fungi typically found in swimming pool water; test: Prevention secondary screen: laboratory scale model of a swimming pool, water clarity and hydrogen peroxide loss; assay type: cell-based; conditions: for Number of Days of Clarity below 1.0 NTU / Number of Days of Clarity below 1.0 NTU with no Peroxide in System: Table 4
[5] = system: eight species of bacteria and four species of fungi typically found in swimming pool water; test: Prevention in test pools: overall mold and bacterial control
Procedure: The test pools were run in the preventative mode to evaluate the effect of the sanitizers on the build up of bacteria and fungi in the system. The pool pumps were operated for a minimum of 8 hours per day. Each pool was challenged twice per week with eight species of bacteria and four species of fungi typically found in swimming pool water. These microorganisms include species of the fungi Paecilomyces and Trichoderma, and species of the bacteria Alcaligenes, Chryseobacterium and Sphingomonas. Each inoculation represents a total addition of 0.8×106 microorganisms per test pool. Synthetic bather load is added to the system on a weekly basis, as a nutrient source for the microorganisms present in the system. The bather load consists of carbon, nitrogen and macro/micro nutrient sources such as urea, albumin, creatinine, lactic acid, uric acid, glucuronic acid, sodium chloride, sodium sulfate, ammonium chloride, sodium bicarbonate, potassium phosphate potassium sulfate. The total number of viable bacteria and fungi present in each test pool was determined weekly, by conducting agar plate counts. Water samples are removed from each test pool, and using this sample a dilution series (in 10-1 steps, down to a 10-5 of the original sample) is prepared. […]

[6] = system: viable bacteria in pool water and sand with established biofilm; test: Remedial secondary screen: failed model pool, reduction of viable microorganisms in water and sand; assay type: cell-based; conditions: FIGS. 1 and 2
Procedure: The secondary screen methodology is based upon a laboratory scale model of a swimming pool. A volume (800 ml) of synthetic swimming pool water (Calcium chloride dihydrate and Sodium hydrogen carbonate solution) is pumped through a body of swimming pool filter sand, by means of a peristaltic pump. The water temperature of each system is maintained in the range of 80-90° F. The systems are allowed to fail resulting in turbid water and heavy bacterial and fungal growth. This is to simulate a swimming pool that has been improperly maintained and has a problem. The purpose of this test is to evaluate the ability of a single biocide or combination of biocides with adjuvants for controlling the organisms present in both the water and the filter sand. Turbidity is not a key measure because the suspended solids are too fine for filtration so they would need to be removed with a separate chemical treatment such as flocculation. To the water, chemicals may be added as required. […] Hydrogen peroxide is added at concentrations of 0-27.5 ppm at the start of the experimentation. The secondary model system is challenged on a daily basis with eight species of bacteria and four species of fungi typically found in swimming pool water. These microorganisms include species of the fungi Paecilomyces and Trichoderma, and species of the bacteria Alcaligenes, Chryseobacterium and Sphingomonas. Each inoculation represents a total addition of 0.8×10^6 microorganisms per model apparatus. A volume (5 ml) of synthetic bather load is added to the system on a daily basis, as a nutrient source for the microorganisms present in the system. The bather load consists of carbon, nitrogen and macro/micro nutrient sources such as urea, albumin, creatinine, lactic acid, uric acid, glucuronic acid, sodium chloride, sodium sulfate, ammonium chloride, sodium bicarbonate, potassium phosphate potassium sulfate. […] The biocidal treatments are added and reduction of viable microorganisms is measured. The biocidal treatments may be added a second time.

[7] = system: bacteria Alcaligenes, Chryseobacterium and Sphingomonas; test: Prevention secondary screen: bacterial plate counts; assay type: cell-based; conditions: Table 4
[8] = system: Bacteria (Alcaligenes, Chryseobacterium and Sphingomonas); test: Prevention in test pools: water bacteria counts
Procedure: as §1

[9] = DBNPA 1 ppm Daily Additions, in the absence of PHMB
[10] = Pool 2, 1.0 ppm/day DBNPA, Low Baquacil (10-20 ppm)
[11] = Pool 2, 1.0 ppm/day DBNPA, Recommended Baquacil (30-50 ppm)
[12] = Pool 6, 0.5 ppm/day DBNPA, Low Baquacil (10-20 ppm)
[13] = Pool 6, Tablet 0.3 ppm/day DBNPA, Recommended Baquacil (30-50 ppm), with hydrogen peroxide doses
[14] = Pool 7, 2.0 ppm/day DBNPA, Low Baquacil (10-20 ppm)
[15] = Pool 7, 2.0 ppm/day DBNPA, Recommended Baquacil (30-50 ppm)

For `CCCCCCCCCCCCN` [Armeen 12D, Dodecyl amines], the “Efficacy level (Effective Concentration with 6 ppm of PHMB)” value [1] was greater than 100 ppm.

In the case of `N#CC(Br)(Br)C(N)=O` [DBNPA, Dibromonitrilopropionamide], the “Fungal Counts at Clarity of 1.0 NTU or above” value (shortened to “Fungal Counts at Clarity”) ([2]; DBNPA 0.25 ppm Daily Additions) is reported as 3.0 × 10^2 CFU/ml, the “Fungal Counts at Clarity” value ([2]; DBNPA 0.5 ppm Daily Additions) is reported as 2.0 × 10^2 CFU/ml and the “Fungal Counts at Clarity” value [2, 9] is reported as 1.2 × 10^3 CFU/ml. The “Mold % 0 counts” value [3, 10] was 59.7%, the “Mold % Counts >999 cfu/ml” value [3, 10] was 3.0% and the “Mold Avg Counts” value [3, 10] was 4267 cfu/ml. The “Mold % 0 counts” value [3, 11] was 69.0%, the “Mold % Counts >999 cfu/ml” value [3, 11] was 0.0% and the “Mold Avg Counts” value [3, 11] was 9.0 cfu/ml. For the same molecule, the “mold control compared to the other DBNPA pools” value ([3]; Pool 2 at low PHMB (1.0 ppm/day DBNPA)) was “had difficulty controlling mold”, the “Mold % 0 counts” value [3, 12] was 76.1% and the “Mold % Counts >999 cfu/ml” value [3, 12] was 0.0%. For the same molecule, the “Mold Avg Counts” value [3, 12] was 19.0 cfu/ml, the “Mold % 0 counts” value [3, 13] was 66.7% and the “Mold % Counts >999 cfu/ml” value [3, 13] was 0.0%. The “Mold Avg Counts” value [3, 13] was 8.0 cfu/ml, the “Mold % 0 counts” value [3, 14] was 74.6% and the “Mold % Counts >999 cfu/ml” value [3, 14] was 1.5%. The “Mold Avg Counts” value [3, 14] was 620 cfu/ml, the “Mold % 0 counts” value [3, 15] was 83.3% and the “Mold % Counts >999 cfu/ml” value [3, 15] was 0.0%. For the same molecule, the “Mold Avg Counts” value [3, 15] was 4.0 cfu/ml, the “Number of Days of Clarity below 1.0 NTU” value ([4]; DBNPA 0.25 ppm Daily Additions) was 47 days and the “Number of Days of Clarity below 1.0 NTU with no Peroxide in System” value ([4]; DBNPA 0.25 ppm Daily Additions) was 0 days. For the same molecule, the “Number of Days of Clarity below 1.0 NTU” value ([4]; DBNPA 0.5 ppm Daily Additions) was 54 days, the “Number of Days of Clarity below 1.0 NTU with no Peroxide in System” value ([4]; DBNPA 0.5 ppm Daily Additions) was 19 days and the “Number of Days of Clarity below 1.0 NTU” value [4, 9] was less than 12 days. For the same molecule, the “time to failure of the system (turbid water) versus PHMB alone or PHMB and DBNPA combinations” value ([4]; experiment 2, DBNPA added daily at 1 ppm in the absence of PHMB) was “failure of the system and development of turbid water significantly sooner”, the “performance at preventing turbid water and controlling bacteria and fungi, compared to PHMB alone” value ([4]; experiment one, DBNPA weekly addition with PHMB) was “did not perform as well as the PHMB only treatment” and the “average mold and bacterial counts when PHMB was increased to recommended ranges” value ([5]; all pools treated with DBNPA) was “significantly reduced”. For the same molecule, the “improved performance over controls (average mold and bacterial counts)” value ([5]; all pools treated with DBNPA versus control pools) was 2-4 logs, the “reduction of viable bacterial and fungal populations (remedial performance)” value ([6]; versus oxidizers and surfactants) was “significantly better than the oxidizers and surfactants” and the “log reduction of viable bacteria in the water” value ([6]; remedial treatment of failed model system) was “improved performance over the non-oxidizing surfactants”. The “log reduction of viable bacteria in the sand” value ([6]; remedial treatment of failed model system, established biofilm) was “superior”, the “Effective concentration of DBNPA in presence of PHMB and Adjuvant” value (from here on “Effective concentration of DBNPA”) ([1]; Adjuvant DSPO 50 ppm) was 1.6-3.13 ppm and the “Effective concentration of DBNPA” value ([1]; Adjuvant DTEA 50 ppm) was 3.13-6.25 ppm. The “Effective concentration of DBNPA” value ([1]; Adjuvant Envirosweet 50 ppm) was 6.25-12.5 ppm, the “Effective concentration of DBNPA” value ([1]; Adjuvant Geogard 111A 50 ppm) was 6.25-12.5 ppm and the “Effective concentration of DBNPA” value ([1]; Adjuvant None) was 3.13-6.25 ppm. The “Effective concentration of DBNPA” value ([1]; Adjuvant SADA 50 ppm) was 1.5-3.13 ppm, the “Effective concentration of DBNPA” value ([1]; Adjuvant Span 60 50 ppm) was 3.13-6.25 ppm and the “Effective concentration of DBNPA” value ([1]; Adjuvant Sulfamic acid 50 ppm) was 0.8-1.6 ppm. For the same molecule, the “Effective concentration of DBNPA” value ([1]; Adjuvant Surfonic L24-22 50 ppm) was 3.13-6.25 ppm, the “Effective concentration of DBNPA” value ([1]; Adjuvant Triton BG10 50 ppm) was 3.13-6.25 ppm and the “Effective concentration of DBNPA” value ([1]; Adjuvant Worm 50 ppm) was 1.6-3.13 ppm. The “Bacterial Counts at Clarity of 1.0 NTU or above” value (shortened to “Bacterial Counts at Clarity”) ([7]; DBNPA 0.25 ppm Daily Additions) was 3.0 × 10^7 CFU/ml, the “Bacterial Counts at Clarity” value ([7]; DBNPA 0.5 ppm Daily Additions) was 1.3 × 10^8 CFU/ml and the “Bacterial Counts at Clarity” value [7, 9] was 9.9 × 10^7 CFU/ml. The “Bacteria % 0 counts” value [8, 10] was 83.6%, the “Bacteria % Counts >999 cfu/ml” value [8, 10] was 4.5% and the “Bacteria Avg Counts” value [8, 10] was 561 cfu/ml. For the same molecule, the “Bacteria % 0 counts” value [8, 11] was 83.3%, the “Bacteria % Counts >999 cfu/ml” value [8, 11] was 2.4% and the “Bacteria Avg Counts” value [8, 11] was 74.0 cfu/ml. The “Bacteria % 0 counts” value [8, 12] was 88%, the “Bacteria % Counts >999 cfu/ml” value [8, 12] was 1.5% and the “Bacteria Avg Counts” value [8, 12] was 150 cfu/ml. The “Bacteria % 0 counts” value [8, 13] was 92.8%, the “Bacteria % Counts >999 cfu/ml” value [8, 13] was 0.0% and the “Bacteria Avg Counts” value [8, 13] was 5.0 cfu/ml. The “Bacteria % 0 counts” value [8, 14] was 89.6%, the “Bacteria % Counts >999 cfu/ml” value [8, 14] was 0.0% and the “Bacteria Avg Counts” value [8, 14] was 22.0 cfu/ml. The “Bacteria % 0 counts” value [8, 15] was 100%, the “Bacteria % Counts >999 cfu/ml” value [8, 15] was 0.0% and the “Bacteria Avg Counts” value [8, 15] was 0.0 cfu/ml.

For `O=C1c2ccccc2C(=O)c2ccccc21` [Envirosweet, 9,10 anthraquinone], the “Result (effect of adjuvant on DBNPA efficacy against biofilm)” value [1] was “Negative impact”.

`CC(=O)C1C(=O)C=C(C)OC1=O` (stereo not shown) [Geogard 111A, Dehydroxyacetic acid (dehydroacetic acid)] was tested, and the “Result (effect of adjuvant on DBNPA efficacy against biofilm)” value [1] was “Negative impact”.

`CCCCCCCCCCCCCC(=O)O` [Myristian, Mystic acid] was tested, and the “Efficacy level (Effective Concentration with 6 ppm of PHMB)” value [1] was greater than 100 ppm.
